Test results reported in BindingDB's records for doi:10.1016/j.bmcl.2004.03.046 (Seoul National University, 2004).

target: Tyrosinase (Agaricus bisporus); assay: Inhibitory activity against mushroom tyrosinase

Compound	IC50 [nM]
O=C(N[C@@H](Cc1ccccc1)C(=O)N[C@@H](Cc1c[nH]c2ccccc12)C(=O)N[C@@H](Cc1c[nH]c2ccccc12)C(=O)O)OCc1cc(=O)c(O)co1 [2-[(S)-2-[(S)-2-(5-Hydroxy-4-oxo-4H-pyran-2-ylmethoxycarbonylamino)-3-phenyl-propionylamino]-3-(1H-indol-3-yl)-propionylamino]-3-(1H-indol-3-yl)-propionic acid]	6170
CC[C@H](C)[C@H](NC(=O)[C@H](Cc1c[nH]c2ccccc12)NC(=O)[C@H](Cc1ccccc1)NC(=O)OCc1cc(=O)c(O)co1)C(=O)O [2-[(S)-2-[(S)-2-(5-Hydroxy-4-oxo-4H-pyran-2-ylmethoxycarbonylamino)-3-phenyl-propionylamino]-3-(1H-indol-3-yl)-propionylamino]-3-(S)-methyl-pentanoic acid]	2180
O=C(N[C@@H](Cc1ccccc1)C(=O)N[C@@H](Cc1c[nH]c2ccccc12)C(=O)N[C@@H](Cc1ccccc1)C(=O)O)OCc1cc(=O)c(O)co1 [2-[(S)-2-[(S)-2-(5-Hydroxy-4-oxo-4H-pyran-2-ylmethoxycarbonylamino)-3-phenyl-propionylamino]-3-(1H-indol-3-yl)-propionylamino]-3-phenyl-propionic acid]	4480
O=C(O)C[C@H](NC(=O)[C@H](Cc1c[nH]c2ccccc12)NC(=O)[C@H](Cc1ccccc1)NC(=O)OCc1cc(=O)c(O)co1)C(=O)O [2-[(S)-2-[(S)-2-(5-Hydroxy-4-oxo-4H-pyran-2-ylmethoxycarbonylamino)-3-phenyl-propionylamino]-3-(1H-indol-3-yl)-propionylamino]-succinic acid]	2130
O=C(N[C@@H](Cc1ccccc1)C(=O)N[C@@H](Cc1ccc(O)cc1)C(=O)N[C@@H](Cc1ccc(O)cc1)C(=O)O)OCc1cc(=O)c(O)co1 [(S)-2-[(S)-2-[(S)-2-(5-Hydroxy-4-oxo-4H-pyran-2-ylmethoxycarbonylamino)-1-oxo-3-phenyl-propylamino]-3-(4-hydroxy-phenyl)-propionylamino]-3-(4-hydroxy-phenyl)-propionic acid]	390
O=C(N[C@@H](Cc1ccccc1)C(=O)N[C@@H](Cc1ccccc1)C(=O)N[C@@H](Cc1ccc(O)cc1)C(=O)O)OCc1cc(=O)c(O)co1 [(S)-2-{(S)-2-[(S)-2-(5-Hydroxy-4-oxo-4H-pyran-2-ylmethoxycarbonylamino)-1-oxo-3-phenyl-propylamino]-3-phenyl-propionylamino}-3-(4-hydroxy-phenyl)-propionic acid]	330
